Laboratory results as given in PMC6198068, “Discovery of a Novel Nav1.7 Inhibitor From Cyriopagopus albostriatus Venom With Potent Analgesic Efficacy” (Frontiers in Pharmacology, 2018).
Like-named read-outs stand apart in the source and are kept apart here. Where a SMILES comes first, the peptide text is derived from it. Bridges are numbered along the chain shown (N, C = ends).

Key:
Nav1.7 [1] = molecular target: T1, Nav1.7 (Homo sapiens, UniProt Q15858); assay: Steady-state slow inactivation of Nav1.7; format: cell-based; settings: 0.2 μM; 15 s pre-pulses; control −52.62 ± 3.79 mV; P < 0.01 paired t-test; mean ± SEM, n = 6–11 cells
T1 construct: expressed in transfected cells; host or cells: HEK293T
T1 sequence (O60939 30-215): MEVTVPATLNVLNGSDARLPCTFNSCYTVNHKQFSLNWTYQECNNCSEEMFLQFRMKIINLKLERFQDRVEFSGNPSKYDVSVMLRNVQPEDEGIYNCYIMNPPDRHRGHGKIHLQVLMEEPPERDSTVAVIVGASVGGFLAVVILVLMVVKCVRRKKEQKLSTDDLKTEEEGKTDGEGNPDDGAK
T1 sequence (Q15858 other isoform, or with tags, fused parts or gaps): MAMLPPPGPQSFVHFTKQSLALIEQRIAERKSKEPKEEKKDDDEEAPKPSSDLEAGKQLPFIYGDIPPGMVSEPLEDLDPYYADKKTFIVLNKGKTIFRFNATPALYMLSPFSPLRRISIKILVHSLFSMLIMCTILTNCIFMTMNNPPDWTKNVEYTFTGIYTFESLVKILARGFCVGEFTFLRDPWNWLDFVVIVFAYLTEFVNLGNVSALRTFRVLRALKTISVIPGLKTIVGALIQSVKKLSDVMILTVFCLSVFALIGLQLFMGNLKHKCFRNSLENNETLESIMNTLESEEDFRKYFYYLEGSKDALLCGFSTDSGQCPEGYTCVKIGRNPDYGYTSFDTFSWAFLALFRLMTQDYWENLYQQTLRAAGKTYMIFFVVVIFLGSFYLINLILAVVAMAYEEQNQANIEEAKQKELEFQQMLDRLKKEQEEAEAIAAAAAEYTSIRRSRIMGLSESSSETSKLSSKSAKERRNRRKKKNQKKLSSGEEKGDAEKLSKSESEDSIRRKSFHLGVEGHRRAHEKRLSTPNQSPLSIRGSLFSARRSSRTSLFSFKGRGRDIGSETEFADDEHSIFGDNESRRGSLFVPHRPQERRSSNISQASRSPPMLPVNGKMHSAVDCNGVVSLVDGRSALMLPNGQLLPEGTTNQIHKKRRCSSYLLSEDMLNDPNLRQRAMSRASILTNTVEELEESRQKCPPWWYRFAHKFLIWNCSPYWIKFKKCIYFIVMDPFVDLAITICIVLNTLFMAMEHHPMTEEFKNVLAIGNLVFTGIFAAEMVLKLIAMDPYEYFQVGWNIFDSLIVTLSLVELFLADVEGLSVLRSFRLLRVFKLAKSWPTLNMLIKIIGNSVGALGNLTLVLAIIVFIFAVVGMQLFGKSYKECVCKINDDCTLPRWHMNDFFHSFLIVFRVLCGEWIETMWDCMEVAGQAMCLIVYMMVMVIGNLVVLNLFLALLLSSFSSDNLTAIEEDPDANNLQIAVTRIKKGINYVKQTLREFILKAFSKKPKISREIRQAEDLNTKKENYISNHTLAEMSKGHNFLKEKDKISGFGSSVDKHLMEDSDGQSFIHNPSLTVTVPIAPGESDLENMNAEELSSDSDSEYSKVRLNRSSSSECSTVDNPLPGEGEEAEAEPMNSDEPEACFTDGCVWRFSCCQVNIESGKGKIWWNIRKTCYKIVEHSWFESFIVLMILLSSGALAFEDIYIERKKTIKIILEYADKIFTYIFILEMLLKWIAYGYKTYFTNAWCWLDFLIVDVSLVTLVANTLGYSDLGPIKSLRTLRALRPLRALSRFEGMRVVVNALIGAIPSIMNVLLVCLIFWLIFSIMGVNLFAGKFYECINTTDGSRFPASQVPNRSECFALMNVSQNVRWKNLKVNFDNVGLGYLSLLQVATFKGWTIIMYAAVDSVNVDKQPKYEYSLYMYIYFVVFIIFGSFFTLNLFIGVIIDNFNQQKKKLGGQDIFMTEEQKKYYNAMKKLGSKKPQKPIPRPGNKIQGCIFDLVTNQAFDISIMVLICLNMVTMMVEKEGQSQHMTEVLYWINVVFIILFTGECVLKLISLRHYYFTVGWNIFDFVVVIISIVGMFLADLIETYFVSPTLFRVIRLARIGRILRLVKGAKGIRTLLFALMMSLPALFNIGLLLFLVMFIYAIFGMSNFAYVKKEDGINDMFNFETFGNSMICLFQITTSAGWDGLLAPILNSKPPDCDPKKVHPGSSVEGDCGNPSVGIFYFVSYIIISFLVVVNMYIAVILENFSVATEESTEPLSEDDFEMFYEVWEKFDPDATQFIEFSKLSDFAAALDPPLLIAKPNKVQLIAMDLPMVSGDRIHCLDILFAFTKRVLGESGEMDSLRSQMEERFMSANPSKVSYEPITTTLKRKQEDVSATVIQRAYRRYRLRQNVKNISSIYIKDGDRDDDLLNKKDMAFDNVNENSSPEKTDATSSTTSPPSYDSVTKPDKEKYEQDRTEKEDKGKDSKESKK
T1 sequence (Q07699 19-218, further chain): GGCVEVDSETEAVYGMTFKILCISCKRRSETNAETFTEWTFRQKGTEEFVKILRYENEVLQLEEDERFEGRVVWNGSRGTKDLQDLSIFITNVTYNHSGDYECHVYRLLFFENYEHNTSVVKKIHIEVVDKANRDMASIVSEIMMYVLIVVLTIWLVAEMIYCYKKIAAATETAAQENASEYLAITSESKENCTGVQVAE
From the text: (§1) The cDNA genes encoding rat Nav1.4 and human Nav1.7 were subcloned into vectors pRGB4 and pcDNA3.1-mod, respectively. Mutations of rNav1.4 (N655D, Q657E, and N655D/Q657E) and hNav1.7 (D816N, E818Q, and D816N/E818Q) were constructed using the Gene Tailor Site-Directed Mutagenesis system (Invitrogen, Carlsbad, CA, United States), according to the manufacturer’s instructions. Nav1.2–Nav1.7 and mutant plasmids together with eGFP were transiently transfected into HEK293T cells while Nav1.8 together with eGFP was transiently transfected into ND7/23 cells by Lipofectamine 2000 (Invitrogen, Carlsbad, CA, United States). […] Cells with green fluorescent protein fluorescence were selected for whole-cell patch-clamp recordings 24 h after transfection.
(§2) Whole-cell patch-clamp recordings were performed at room temperature (20–25°C) using an EPC 10 USB Patch Clamp Amplifier (HEKA, Elektronik, Lambrecht, Germany). […] Data was analyzed by software Igo Pro 6.10A (WaveMetrics, Lake Oswego, OR, United States), SigmaPlot 10.0 (Sigma-Aldrich, St. Louis, MO, United States), OriginPro 8 (OriginLab Corp., Northampton, MA, United States), and GraphPad Prism 5 (GraphPad Software, San Diego, CA, United States). […]
Fast inactivation time constants were calculated by fitting current decay traces with a single exponential function using the I–V protocol described above. […]

[2] = system: formalin-induced paw licking in mice; assay: Formalin-induced paw licking; format: in vivo, ICR mice; settings: for paw licking time, Phase I: control 90.3 ± 6.6 s; for paw licking time, Phase I / paw licking time, Phase II: mean ± SEM, n = 6–8; for paw licking time, Phase II: control 197.7 ± 20.7 s
Experimental: The ICR mice (18–22 g) used in this study were purchased from the Experimental Animal Center of SLac-kinda (Changsha, China). The animals were maintained at 20–25°C and freely allowed to standard rodent chow and water ad libitum. Ethical approval for in vivo experiments in animals was approved by the Animal Care and Use Committee (ACUC) at the Hunan Province Animal Management Office (HPAMO).
A formalin test was performed according to the previous method ([Owoyele et al., 2005]). […] The time spent licking the injected paw by each mouse was recorded by a digital stopwatch during Phase I (0–15 min post-injection) and Phase II (15–40 min post-injection).

Nav1.7 [3] = molecular target: T1, Nav1.7; assay: Use/frequency-dependent inhibition of Nav1.7; format: cell-based; settings: n = 4-5; for IC50: read-out: IC50 Nav1.7, repetitive pulses
From the text: as §1, with “States). Additionally, plasmids β1- and β2-eGFP encoding the human β1 and β2 subunits, respectively, were co-transfected with those encoding WT Nav1.7 and Nav1.7 mutations in HEK293T cells. Human Nav1.9 was transfected into ND7/23 cells according to a previous report ([Zhou et al., 2017]).” for “States).”
as §2
Fast inactivation time constants were calculated by fitting current decay traces with a single exponential function using the I–V protocol described above. Recovery from fast-inactivation (repriming) was assessed by using a two-pulse protocol consisting of a depolarizing pulse to −10 mV for 50 ms to inactivate channels, followed by a step to −100 mV of variable duration (1 to 1024 ms) to promote recovery, and 50 ms test pulse to −10 mV to assess availability of channels. […]

Nav1.7/D816N/E818Q = assay: Whole-cell patch-clamp, Nav1.7/D816N/E818Q in HEK293T cells; format: cell-based, human; settings: 1 μM, n = 5 cells
From the text: as §1, with “States). Additionally, plasmids β1- and β2-eGFP encoding the human β1 and β2 subunits, respectively, were co-transfected with those encoding WT Nav1.7 and Nav1.7 mutations in HEK293T cells.” for “States).”
as §2

CC(C)C[C@H](NC(=O)[C@H](CC(=O)O)NC(=O)[C@H](Cc1ccc(O)cc1)NC(=O)[C@H](CCCCN)NC(=O)[C@@H]1CSSC[C@@H]2NC(=O)[C@H](CCCCN)NC(=O)[C@H](CC(=O)O)NC(=O)[C@H](CC(N)=O)NC(=O)[C@H](CO)NC(=O)[C@@H]3CCCN3C(=O)[C@H](CC(N)=O)NC(=O)[C@@H]3CSSC[C@H](NC(=O)[C@H](C(C)C)NC(=O)[C@H](CC(C)C)NC(=O)[C@H](CO)NC(=O)[C@H](CO)NC(=O)[C@H](CO)NC(=O)[C@H](CCCCN)NC(=O)[C@H](CSSC[C@H](NC(=O)[C@H](C)N)C(=O)N[C@@H](CC(C)C)C(=O)NCC(=O)N[C@@H](Cc4ccccc4)C(=O)NCC(=O)N[C@@H](CCC(=O)O)C(=O)N[C@@H](CCCCN)C(=O)N3)NC2=O)C(=O)N[C@@H](CO)C(=O)N[C@@H](CCC(N)=O)C(=O)N[C@@H](CCCCN)C(=O)N[C@@H](Cc2c[nH]cn2)C(=O)N[C@@H](CCCCN)C(=O)N[C@@H](Cc2c[nH]c3ccccc23)C(=O)N1)C(=O)O [Ca2a] (H-ACLGFGEKCNPSNDKCCKSSSLVCSQKHKWCKYDL-OH; disulfide 2-17, 9-24, 16-31 (inferred); N-terminus and C-terminus assumed)
steady-state slow inactivation potential of Nav1.7 (Nav1.7 [1]): −72.00 ± 2.76 mV
paw licking time, Phase I ([2]; 0–15 min, 50 μg/kg i.p. 30 min before 5% formalin): 80.1 ± 4.6 s
paw licking time, Phase I ([2]; 0–15 min, 100 μg/kg i.p. 30 min before 5% formalin): 79.4 ± 9.5 s
paw licking time, Phase I ([2]; 0–15 min, 200 μg/kg i.p. 30 min before 5% formalin): 75.6 ± 7.7 s
analgesic effect on Phase I compared to control ([2]; 0–15 min, Ca2a 50, 100, 200 μg/kg, morphine 100 μg/kg, i.p.): no analgesic effect
paw licking time, Phase II ([2]; 15–40 min, 50 μg/kg i.p. 30 min before 5% formalin): 100.9 ± 16.2 s
paw licking time, Phase II ([2]; 15–40 min, 100 μg/kg i.p. 30 min before 5% formalin): 67.2 ± 20.2 s
paw licking time, Phase II ([2]; 15–40 min, 200 μg/kg i.p. 30 min before 5% formalin): 40.5 ± 7.1 s
analgesic effect on Phase II ([2]; 15–40 min, 50, 100, 200 μg/kg i.p.): significant analgesic effect in a dose-dependent manner
analgesia relative to morphine, formalin test ([2]; formalin, hot plate and writhing together, Ca2a vs morphine): dose-dependently equipotent or stronger analgesia than morphine
use/frequency dependence of inhibition for Nav1.7 (Nav1.7 [3]; 1, 5 and 10 Hz): did not show obvious use/frequency dependence
IC50 (Nav1.7 [3]; 5 Hz): 244 ± 30.7 nM
IC50 (Nav1.7 [3]; 10 Hz): 185 ± 23.8 nM
activity on Nav1.7/D816N/E818Q (Nav1.7/D816N/E818Q): no activity
